The values below come from the OPERA property sets (Mansouri et al. 2018).

For `COc1ccc(C)c(C)c1`, the boiling point is 202 °C. The molecule `C=CCOCC` yielded a boiling point of 67.6 °C and a log10 vapour pressure (mmHg) of 2.18.

Consider `CCCCOCCC`, for which the boiling point came to 118 °C.

On to `O=C1/C(=C/c2ccc(O)c(O)c2)Oc2cc(O)ccc21`, for which the melting point was 303 °C. As to `CC(CCO)CC(C)(C)C` (stereo unspecified), the boiling point was determined as 194 °C, the log10 vapour pressure (mmHg) is -0.523 and the ready biodegradability result is listed as “not readily biodegradable”. For the molecule `CC(C)(C)NSc1nc2ccccc2s1`, the log10 vapour pressure (mmHg) is -6.34. As to `CC(C)CC#N`, the boiling point came to 128 °C and the melting point is -101 °C.

Molecule `COc1ccc(NS(=O)(=O)c2ccc(N)cc2)nn1` showed a melting point of 182 °C. `C` came in with a boiling point of -162 °C, a log10 Koa of -0.38, a log10 vapour pressure (mmHg) of 5.67 and a melting point of -182 °C. `Cc1cc(N)cc(C)n1` showed a boiling point of 246 °C and a melting point of 192 °C. Molecule `CC(C)CCC[C@@H](C)[C@H]1CC[C@H]2[C@@H]3CC=C4C=CCC[C@]4(C)[C@H]3CC[C@]12C` registered a melting point of 80 °C. `CCCCCCCCCCCCCC(C)=O` returned a boiling point of 294 °C and a melting point of 39.5 °C. The molecule `C=CCN(CC=C)C(=O)C(Cl)Cl` displayed a log10 Koc (L/kg) of 1.6, a log10 vapour pressure (mmHg) of -2.22 and a melting point of 5.5 °C. As to `CCc1ccccc1-c1ccccc1CC`, the ready biodegradability result was “not readily biodegradable”. Consider `O=C(O)c1cccc(I)c1`, for which the melting point was 188 °C.

For the molecule `O=NN(CCCl)C(=O)NC1CCCCC1`, the melting point is 89 °C. On the same count and under the same terms, the result for `COc1ccc([N+](=O)[O-])cc1N` reads 118 °C.

For the molecule `Cc1cc(C)cc(OP(=O)(Oc2cc(C)cc(C)c2)Oc2cc(C)cc(C)c2)c1`, the ready biodegradability result is listed as “not readily biodegradable”. For the molecule `CC(=O)c1ccc2ccccc2c1`, the boiling point was determined as 302 °C, the log10 Koc (L/kg) came to 2.93, the log10 vapour pressure (mmHg) is -3.21 and the melting point was found to be 56 °C. `Clc1ccc2ccccc2c1Cl` showed a boiling point of 296 °C, a log10 Koa of 6.89, a log10 vapour pressure (mmHg) of -2.7 and a melting point of 36 °C. As for `CC(=O)CC(=O)Nc1ccccc1Cl`, the melting point stood at 105 °C. `CCCc1cccs1` came in with a boiling point of 158 °C.

The molecule `C[C@]12CC[C@@H]3c4ccc(OC(=O)N(CCCl)CCCl)cc4CC[C@H]3[C@@H]1CC[C@@H]2O` showed a melting point of 104 °C.

For the molecule `COc1cccc(N)c1`, the boiling point was 251 °C, the log10 vapour pressure (mmHg) was -1.12, the melting point is -1 °C and the ready biodegradability entry is “not readily biodegradable”.

The molecule `CC1(C)OC(=O)CC(=O)O1` yielded a melting point of 94 °C. Turning to `CCCCCCCCCCCCc1ccccc1`, the boiling point amounted to 328 °C, the log10 vapour pressure (mmHg) was -4.29, the melting point is 3 °C and the ready biodegradability result is recorded as “readily biodegradable”. `C[C@@H](S)C(=O)O` yielded a melting point of 12 °C. On the same count and under the same terms, then `CCC(=O)O[C@]1(C(=O)CCl)[C@@H](C)C[C@H]2[C@@H]3CCC4=CC(=O)C=C[C@]4(C)[C@@]3(F)[C@@H](O)C[C@@]21C`, with 196 °C.

Take `O=P(O)(O)CN(CP(=O)(O)O)CP(=O)(O)O`: the boiling point was determined as 480 °C and the log10 vapour pressure (mmHg) was -11.2.

`C=CC1(C)OC(=O)N(c2cc(Cl)cc(Cl)c2)C1=O` (stereo unspecified) showed a log10 Koc (L/kg) of 2.7, a log10 vapour pressure (mmHg) of -6.92 and a melting point of 108 °C.

As to `CCOC(CN(C)C)OCC`, the boiling point turned out to be 170 °C. `C=C(C)C(=O)OCCCCCCCCCCCC`: the melting point is -7 °C.

As to `CCCCCC1CCCCC1`, the boiling point worked out at 204 °C, the log10 vapour pressure (mmHg) is -0.429 and the melting point was -57.5 °C. `CC(C)CB(CC(C)C)CC(C)C` gave a boiling point of 188 °C and a melting point of -88 °C. In turn, `CCCCCCCCCCCCCCCCCC` registered a boiling point of 316 °C, a log10 biodegradation half-life (days) of 1.32, a log10 vapour pressure (mmHg) of -3.47 and a melting point of 28.2 °C. For the same molecule, the ready biodegradability result is recorded as “readily biodegradable”. With `CCOC(=O)C(Cl)Cl`, the boiling point was found to be 155 °C and the log10 vapour pressure (mmHg) was 0.456.

`COC(=O)C(C)O` (stereo unspecified): the boiling point was found to be 145 °C and the melting point was -66 °C. In the case of `CC(=O)O[C@H]1C[C@@H]2CC[C@@H]3[C@H](CC[C@@]4(C)[C@H]3C[C@H]([N+]3(C)CCCCC3)[C@@H]4OC(C)=O)[C@@]2(C)C[C@@H]1[N+]1(C)CCCCC1.[Br-].[Br-]`, the melting point stood at 215 °C. Same read-out and setting: the result for `O=[N+]([O-])c1ccc(CCO)cc1` reads 63 °C; that for `O=[N+]([O-])c1ccc(N=C=S)cc1`, 111 °C. The same measure, in the same setting: the result for `O=C(O)Cc1ccc(F)cc1` reads 86 °C. For `C#CCCO`, the boiling point came out at 129 °C and the melting point is -63.6 °C. The molecule `CCOC(=O)c1ccc(O)c(OC)c1` returned a boiling point of 292 °C and a melting point of 44 °C. `CC(C)CCCCCOC(=O)c1ccccc1C(=O)OCCCCCC(C)C` displayed a log10 Koc (L/kg) of 3.21 and a log10 vapour pressure (mmHg) of -5.26.

Turning to `O=[N+]([O-])c1ccccc1Br`, the boiling point was 258 °C and the melting point is 43 °C. For `C[C@H](N)[C@H](O)c1cccc(O)c1`, in that order: 218 °C and 108 °C. As to `COC(=O)CCC(=O)O`, the melting point was 58 °C. As to `CC(O)CNCCN` (stereo unspecified), the melting point was -50 °C.

`O=C(Cl)C(F)(F)C(F)(F)C(F)(F)F` returned a boiling point of 38.5 °C.

The molecule `CCC=CC(C)=O` yielded a boiling point of 140 °C. `C=CCNC(=O)NCC=C` gave a melting point of 91.5 °C. With `CCCCCCCCCCCC[N+](C)(C)Cc1ccccc1`, the ready biodegradability entry is “not readily biodegradable”. With `CCCCC[Si](Cl)(Cl)Cl`, the boiling point came out at 172 °C. `NC(N)=N/C(N)=N/c1ccccc1` gave a melting point of 143 °C. In the case of `CN(C)c1ccccc1Cl`, the boiling point turned out to be 205 °C. For `COc1ccc([C@@H]2CC(=O)c3c(O)cc(O)cc3O2)cc1O`, the melting point amounted to 228 °C.

Usually boiling point stands for the temperature of boiling at a given pressure. In general, melting point refers to the temperature, or range, at which the solid turns liquid.
